# Source: patent publication US20210032806A1, “ANTIMICROBIAL FABRIC TREATMENT” (The Procter & Gamble Company, priority 2019, published 2021)
# Columns and labels:
# Assay type in all cases: cell-based
# [1] = tested on: Staphylococcus aureus (S. aureus—ATCC #6538); assay: Minimum Biocidal Concentration (MBC) in suspension, S. aureus; conditions: 6 minutes contact time, 5% horse serum soil load
# Experimental: (§1) The antimicrobial efficacy of the antimicrobial agent in the aqueous liquor is determined by measuring its Minimum Biocidal Concentration (MBC). The MBC is defined as the lowest absolute concentration of the particular antimicrobial active which provides complete kill (zero bacterial growth). The MBC of the bispyridinium alkane antimicrobial active is determined against the bacterium, Staphylococcus aureus (S. aureus—ATCC #6538), a gram positive bacterium, and against Escherichia coli (E. coli ATCC #8739) these microorganisms are representative of natural contaminants in many consumer and industrial applications. The bacteria inoculum is prepared by transferring several colonies from a Tryptone Soy Agar (TSA) plate to a saline solution (0.85% NaCl) comprising 5% of horse serum as additional soil load, the bacteria concentration in this saline solution is determined by measuring the % Transmittance at 425 nm and adjusted by either adding more bacteria or more saline solution until the % Transmittance at 425 nm is between 23-25% for S. aureus and 31-33% for E. coli. These % Transmittance values correspond to a bacteria concentration of 10^8 CFU/ml.
# (§2) The antimicrobial agent was added to the aqueous liquor to be used in the method of the present invention at a level of 200 ppm, or 100 ppm or 50 ppm. 200 μL of the antimicrobial aqueous liquor was dosed into one well of row A of a 96 well microtiter plate. Each subsequent well (rows B to G) were dosed with 100 μL of the same aqueous liquor, without the addition of the antimicrobial agent. 100 μL of the antimicrobial aqueous liquor was transferred from row A to row B and mixed. 100 μL of the antimicrobial aqueous liquor was then transferred from row B to row C and mixed, and the process repeated to row G. As such, the concentration of the antimicrobial agent underwent two-fold dilution in adjacent wells, while the concentration of any adjunct present in the aqueous liquor remained constant across all the wells in the same column.
# 10 μL of the 10^8 CFU/ml bacteria suspension in saline was added to wells A to F of the microtiter plate with row G kept as a nil bacteria control. The final volume in each well was 110 μL, except for row G which comprised 100 μL of the hard surface cleaning composition and no bacteria suspension. Bacterial inoculation to each column was staggered by 30 seconds to allow for equal incubation times in all wells so that the contact time between the bacteria and the antimicrobial active for all samples was 6 mins. After this contact time, 10 μL of each test solution was transferred to 90 μL of neutraliser solution (Modified Letheen Broth+1.5% Polysorbate 80, supplied by BioMérieux) to stop the antimicrobial action of the antimicrobial active matching the stagger of the inoculation. 2 μL of this solution was plated onto a TSA plate matching the stagger of the inoculation so that all samples are exposed to the neutralizer for the same period of time. The plate is incubated at 32.5° C. for 24-48 h for S. aureus, and 24 h for E. coli. MBC concentration is taken as the lowest concentration of the antimicrobial active at which no visible colony growth is observed on the TSA plate.
# (§3) The antibacterial efficacy of the bispyridinium alkane octenidine hydrochloride was compared to that of N-(3-aminopropyl)-N-dodecylpropane-1,3-diamine (Lonzabac 12.30-Lonza) and n-alkyl dimethyl benzyl ammonium chloride/n-alkyl dimethyl ethylbenzyl ammonium chloride (BTC2125-Stepan) in different aqueous liquors. The minimal biocidal concentration (MBC) in suspension of each antibacterial active against a gram positive bacterium (Staphylococcus aureus) and a gram negative bacterium (Escherichia coli) was determined after 6 minutes contact time.
# [2] = tested on: Escherichia coli (E. coli ATCC #8739); assay: Minimum Biocidal Concentration (MBC) in suspension, E. coli; conditions: 6 minutes contact time, 5% horse serum soil load; for MBC: Escherichia coli, ATCC8739, 0.1 h
# Experimental: as §1, §2
# 10 μL of the 10^8 CFU/ml bacteria suspension in saline was added to wells A to F of the microtiter plate with row G kept as a nil bacteria control. […]
# as §3
# [3] = tested on: Staphylococcus aureus (S. aureus—ATCC #6538); assay: Antibacterial efficacy on cotton fabrics; conditions: cotton fabric, 625 ppm active in liquor with 3750 ppm C12-C14 EO7, 1 h contact; for Number of bacteria recovered from treated fabrics: nil AB reference 9.1 × 10^5 CFU/ml
# Experimental: The bactericidal efficacy on fabric surfaces of treatments with antimicrobial aqueous liquors comprising different antimicrobial agents was determined against the bacterium Staphylococcus aureus (S. aureus—ATCC #6538). The bacteria inoculum was prepared by transferring several colonies from a Tryptone Soy Agar (TSA) plate to a saline solution (0.85% NaCl) comprising 5% horse serum as additional soil load, the bacteria concentration in this saline solution was determined by measuring the % Transmittance at 425 nm and adjusted by either adding more bacteria or more saline solution until the % Transmittance at 425 nm is between 23-25% which corresponds to a bacteria concentration of 10^8 CFU/ml.
# Fabric carriers, 1 cm×1 cm disks of cotton sterilized by autoclaving, were inoculated with 30 μL of the 10^8 CFU/ml bacteria inoculum and incubated for 20 mins at 32° C. After this incubation period, 3 fabric carriers were placed within bundles of 10 clean sterile cotton disks and secured by placing a sterile 30 mm paperclip to the edge of the bundle. The fabric bundles were placed in 30 ml of antimicrobial aqueous liquors to be used in the method of the present invention comprising 3750 ppm of C12-C14 EO7 alkyl ethoxylate non ionic surfactant and 625 ppm of either bispyridinium alkane (octenidine dihydrochloride), N-(3-aminopropyl)-N-dodecylpropane-1,3-diamine (Lonzabac 12.30) or benzalkonium chloride (Sigma-Aldrich CAS number 63449-41-2) as antimicrobial actives. The contact time between the bacteria in the fabric carriers and the antimicrobial aqueous liquor was 1 h. After this contact time, each fabric bundle was rinsed for 5 minutes with water and the 3 fabric carries transferred to 9 ml of neutralizer solution (Modified Letheen Broth+1.5% Polysorbate 80, supplied by BioMérieux) to stop the antimicrobial action of the antimicrobial active. The neutralizer tube containing the fabric carriers was vortexed in a Genie 2 vortexer set at speed 7 for 30 seconds. Ten-fold dilutions of the neutralizer+fabric carrier solution were prepared by transferring 1 ml of the neutralizer solution to 9 ml of neutralizer solution, this solution was further diluted in neutralizer solution following the same protocol so that serial ten-fold dilutions were obtained. 100 μL of each of the serial dilutions were plated on a TSA plate, plates were incubated at 32° C. for 18 hours, after this incubation time, the number of colonies in each plate was counted. The target dilution used to determine the bactericidal efficacy of aqueous liquor of the method of the present invention was the one delivering 30-300 CFU in the plate, the data reported for each antimicrobial active is the average of the bacteria number in three plates multiplied by the target dilution. The log reduction for each antibacterial treatment vs nil antibacterial active reference is the log 10 of the number obtained by dividing the number of colonies recovered from the fabrics treated with the nil antibacterial reference aqueous liquor by the number of colonies recovered from the fabrics treated with aqueous liquors comprising the different antimicrobial actives.
# Cotton fabrics inoculated with bacteria were treated for 1 hour with aqueous liquors comprising 3750 ppm of C12-C14 EO7 alkyl ethoxylate non ionic surfactant and either no antibacterial active (ref) or 625 ppm of octenidine hydrochloride, 625 ppm of Lonzabac 12.30 or 625 ppm of benzalkonium chloride as antibacterial actives. After the treatment, the bacteria remaining on the treated fabrics were extracted and quantified. It can be seen that the treatment done with the aqueous liquor comprising octenidine hydrochloride provides better antibacterial efficacy, i.e. less bacteria remaining on fabrics, and higher log reduction, than the treatments done with aqueous liquors comprising either Lonzabac or benzalkonium chloride.
# [4] = aqueous liquor 2: Octyliminodipropionate (Ampholak YJH 40) 0.1%
# [5] = aqueous liquor 3: C12-C14 EO7 alcohol ethoxylate 0.1%
# [6] = aqueous liquor 5: Sodium lauroamphohydroxypropylsulfonate (Miranol JS) 0.0062%
# [7] = aqueous liquor 7: Octyliminodipropionate (Ampholak YJH 40) 0.0062%
# [8] = aqueous liquor 8: C12-C14 EO7 alcohol ethoxylate 0.0062%
Compound,MBC S. aureus ([1]; aqueous liquor 1: deionized water) [ppm],"MBC S. aureus [1, 4] [ppm]","MBC S. aureus [1, 5] [ppm]","MBC S. aureus [1, 6] [ppm]","MBC E. coli [2, 7] [ppm]","MBC E. coli [2, 8] [ppm]",Log reduction vs treatment with nil AB active reference [3],Number of bacteria recovered from treated fabrics [3],"MBC ([1]; Staphylococcus aureus, ATCC6538, 0.1 h, aqueous liquor 1: deionized water) [µg/mL]",MBC S. aureus ([1]; aqueous liquor 4: Disodium capryloamphodiacetate (Mackam 2CY75) 0.025%) [ppm],"MBC [2, 7] [µg/mL]","MBC [2, 8] [µg/mL]"
"CCCCCCCCN=c1ccn(CCCCCCCCCCn2ccc(=NCCCCCCCC)cc2)cc1.Cl.Cl [Octenidine, octenidine dihydrochloride]",3.125,3.125,6.25,3.125,3.125,6.25,Log 2.5,2.8 × 10^3 CFU/ml,–,–,–,–
benzalkonium chloride,–,–,–,–,–,–,Log 1.2,5.8 × 10^4 CFU/ml,–,–,–,–
"CCCCCCCCCCCCN(CCCN)CCCN [Lonzabac 12.30, N-(3-aminopropyl)-N-dodecylpropane-1,3-diamine]",–,25,25,25,–,–,Log 0.7,1.9 × 10^5 CFU/ml,25,25,50,25
